We go through 49 compounds from PubChem BioAssay AID2842 (Southern Research Institute, 2010).

Values after ≈ are worked out from the molar mass of the structure shown. Some results are limits rather than exact numbers.

This assay has as its system M. tuberculosis H37Rv growth inhibition. The experiment in a line: Mycobacterium tuberculosis H37Rv growth inhibition, putative kinase inhibitor library, confirmatory dose response (AID 2842).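 Further: bacteria incubated one week before Alamar blue readout.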

The IC90 is the concentration at which the effect reaches the 90% level. `Cc1ccc(C)c(-c2nnc(NC(=O)c3ccccc3[N+](=O)[O-])o2)c1`: the IC90 was 4.88 µg/mL (≈ 14.4 µM).
To `OCc1nc2ccccc2n1CCCCOc1ccc(Cl)cc1` belongs 7.39 µg/mL (≈ 22.3 µM).
With `Cc1cccc(N2CCN(C(=O)CCCCCn3c(=O)[nH]c4ccsc4c3=O)CC2C)c1` (centres undefined), the IC90 was 19.5 µg/mL (≈ 42.9 µM).
To `Nc1[nH]nc2nc(N3CCCCC3)nc(-c3ccc4c(c3)OCO4)c12` belongs 11.6 µg/mL (≈ 34.3 µM); to `CN(C)c1ccc(C(=O)Nc2nnc(C3=COCCO3)o2)cc1`, 9.01 µg/mL (≈ 28.5 µM); to `CC(=O)N1CCc2c(sc(NC(=O)c3ccc(C)c(C)c3)c2C(N)=O)C1`, 3.4 µg/mL (≈ 9.15 µM).
As for `CC(=O)OCn1nnc2ccccc2c1=O`, the IC90 is 3.33 µg/mL (≈ 15.2 µM).
To `COc1ccc(-c2nc(N3CCC(C)CC3)nc3n[nH]c(N)c23)cc1` belongs 2.14 µg/mL (≈ 6.32 µM); to `Cc1ccc(C2C(C#N)=C(SCC(=O)Nc3cccc(Cl)c3)NC3=C2C(=O)CCC3)o1` (centres undefined), 12.1 µg/mL (≈ 26.6 µM).
As for `CCS(=O)(=O)c1ccc(C(=O)Nc2nnc(-c3ccc(Br)cc3)o2)cc1`, the figure is 24.6 µg/mL (≈ 56.4 µM); as for `Cc1cc(C)c2nc(C(F)(F)F)nc(NC(C)CCc3ccccc3)c2c1` (centres undefined), 7.61 µg/mL (≈ 20.4 µM).
To `Cc1nc2c(ccc3nc(NC(=O)c4ccco4)sc32)s1` belongs 35 µg/mL (≈ 111 µM).
With `O=C(Nc1nnc(-c2ccccc2Cl)o1)c1nc2ccccc2s1`, the IC90 is 1.75 µg/mL (≈ 4.9 µM).
To `N=C1SC(c2ccccc2)C(=O)N1c1nccs1` (centres undefined) belongs 30.1 µg/mL (≈ 109 µM).
As for `COc1ccc(-c2ccc(C3C(C#N)=C(N)Oc4n[nH]c(C)c43)o2)cc1` (centres undefined), the figure is 4.92 µg/mL (≈ 14.1 µM); as for `O=C(/C=C/c1ccccc1)Nc1nc2c(s1)COc1ccccc1-2`, 6.8 µg/mL (≈ 20.3 µM); as for `Cc1ccc(Cl)cc1N1CCN(CC(O)COc2ccccc2[N+](=O)[O-])CC1` (centres undefined), 13 µg/mL (≈ 32.1 µM).
Take `COc1cc(OC)cc(C(=O)N(CCCn2ccnc2)c2nc3c(F)cccc3s2)c1`: the IC90 was 20.6 µg/mL (≈ 46.8 µM).
As for `CCOc1ccc2nc(N(CCCn3ccnc3)C(=O)c3ccc(F)cc3)sc2c1`, the figure is 7.77 µg/mL (≈ 18.3 µM).
As for `CCOc1ccc2c(c1)c1nnc(-c3ccc(OC)cc3)c-1cn2Cc1cccc(C)c1`, the figure is 20.7 µg/mL (≈ 48.9 µM); as for `CCOc1ccc(C(=O)N2CC(=O)Nc3ccc(Br)cc3C2c2ccccc2)cc1` (centres undefined), 25.3 µg/mL (≈ 54.3 µM).
As to `O=C(CCN1C(=O)c2ccccc2S1(=O)=O)Nc1ccc(Br)cc1`, the IC90 is 17.5 µg/mL (≈ 42.9 µM).
Turning to `O=C(/C=C/c1ccc(-c2ccccc2[N+](=O)[O-])o1)c1cccs1`, the IC90 was 13 µg/mL (≈ 39.9 µM).
With `O=C(Nc1nc(-c2nc3ccccc3s2)cs1)C1COc2ccccc2O1` (centres undefined), the IC90 is 26.8 µg/mL (≈ 67.8 µM).
As for `O=C(Cc1ccccc1)Nc1nnc(-c2ccc3c(c2)CCCC3)o1`, the figure is 55.8 µg/mL (≈ 167 µM); as for `Cc1ccccc1C(=O)Nc1nnc(-c2ccc(F)cc2)o1`, under 0.2 µg/mL; as for `CC(=O)Nc1nnc(-c2ccc(C)cc2C)o1`, 23.9 µg/mL (≈ 103 µM).
For the compound `CC(C)(C)c1ccc(-n2c(=O)[nH]c3c(C(N)=O)nc(CCc4ccccc4)nc32)cc1`, the IC90 is 2.36 µg/mL (≈ 5.68 µM).
To `Cc1ccc(-c2nnc(NC(=O)c3cc([N+](=O)[O-])ccc3Cl)o2)c(C)c1` belongs 1.57 µg/mL (≈ 4.21 µM); to `O=C(Nc1nnc(-c2ccco2)o1)c1ccc([N+](=O)[O-])cc1`, 35.8 µg/mL (≈ 119 µM).
Take `CCOC(=O)c1cnc2ccc(OCC)cc2c1Nc1cccc(C)c1`: the IC90 was 14.1 µg/mL (≈ 40.3 µM).
Take `O=C(Nc1nnc(-c2ccco2)o1)c1cccc(Oc2ccccc2)c1`: the IC90 was 3.31 µg/mL (≈ 9.53 µM).
Consider `O=C(Nc1nnc(-c2ccc(Cl)cc2)o1)c1ccccc1Br`, for which the IC90 was 2.46 µg/mL (≈ 6.5 µM).
To `CCOc1ccc2c(c1)O/C(=C\c1cccc(OCC(=O)OC)c1)C2=O` belongs 1.66 µg/mL (≈ 4.68 µM); to `Cc1ccc(-n2ncc3c(NC(C)C)ncnc32)cc1Cl`, 64 µg/mL (≈ 212 µM); to `COc1cccc2sc(Nc3nc4ccc(C(C)C)cc4s3)nc12`, 2.24 µg/mL (≈ 6.3 µM).
To `COc1ccc(N2CC(c3nc4ccccc4n3Cc3ccccc3C)CC2=O)cc1` (centres undefined) belongs 20.1 µg/mL (≈ 48.8 µM); to `Cc1cccc(C(=O)Nc2nnc(-c3cc(Cl)ccc3Cl)o2)c1`, 32 µg/mL (≈ 91.9 µM).
To `CS(=O)(=O)NNc1ccc([N+](=O)[O-])cc1[N+](=O)[O-]` belongs 11.6 µg/mL (≈ 41.9 µM); to `Cc1ccc(C)c(-c2nnc(NC(=O)c3cc([N+](=O)[O-])ccc3Cl)o2)c1`, under 0.2 µg/mL.
For `Fc1cccc2sc(N3CCCC3)nc12`, the 90% effect concentration (IC90) was 86.3 µg/mL (≈ 388 µM).
For the compound `Cc1cc(C)c2sc(NNC(=O)c3cc(-c4cccs4)nc4ccccc34)nc2c1`, the IC90 is 25.6 µg/mL (≈ 59.5 µM).
As for `Cc1ccc(C)c(-c2nnc(NC(=O)c3ccc([N+](=O)[O-])cc3)o2)c1`, the figure is 78.5 µg/mL (≈ 232 µM); as for `CCCc1cc(-c2nc(N)ncc2-c2ccc3c(c2)OCO3)c(O)cc1OC`, 17.6 µg/mL (≈ 46.4 µM).
To `O=C(Nc1nnc(-c2ccc3c(c2)CCCC3)o1)c1ccccc1Br` belongs under 0.2 µg/mL.
To `Cc1ccc(C)c2sc(N(CCCn3ccnc3)C(=O)COc3ccccc3)nc12` belongs 6.05 µg/mL (≈ 14.4 µM); to `COC(=O)CSc1ncnc2c1cnn2-c1ccc(F)cc1`, 4.54 µg/mL (≈ 14.3 µM); to `CCCCC(=O)Nc1nc(-c2ccccc2)c(C(C)=O)s1`, 13.7 µg/mL (≈ 45.4 µM).
For the compound `COc1cccc2sc(Nc3nc4c(F)cccc4s3)nc12`, the IC90 is 14.5 µg/mL (≈ 43.6 µM).
